Laboratory results: the supplement of paper PMC10307832

Key:
Assay in all cases: relative viability (nuclei count vs DMSO), 5 days (fraction); higher = more cells survive
Wnt-C59 + Trametinib = compound: CC1=NC=CC(=C1)C2=CC=C(C=C2)CC(=O)NC3=CC=C(C=C3)C4=CN=CC=C4 [Wnt-C59] + CC(=O)Nc1cccc(-n2c(=O)n(C3CC3)c(=O)c3c(Nc4ccc(I)cc4F)n(C)c(=O)c(C)c32)c1 [Trametinib] (partner 0.02 µM)
Outline: (§1)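 Lung cancer cell lines in 1536-well plates were dosed by pin tool the day after seeding, either with one drug alone or with a fixed anchor-drug dose plus five library-drug doses (not always all listed) in √10 steps. After 5 days, cells were fixed and their nuclei stained in one step (final 0.05% Triton X-100, 1% formaldehyde, 1 ug/ml Hoechst), then counted on 4× images. Relative viability is the nuclei count in treated wells divided by that in vehicle wells. Values are medians of duplicate plates.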

Wnt-C59 + Navitoclax = compound: CC1=NC=CC(=C1)C2=CC=C(C=C2)CC(=O)NC3=CC=C(C=C3)C4=CN=CC=C4 [Wnt-C59] + CC1(C)CCC(c2ccc(Cl)cc2)=C(CN2CCN(c3ccc(C(=O)NS(=O)(=O)c4ccc(N[C@H](CCN5CCOCC5)CSc5ccccc5)c(S(=O)(=O)C(F)(F)F)c4)cc3)CC2)C1 [Navitoclax] (partner 0.5 µM)
Outline: as §1

Wnt-C59 + Vorinostat = compound: CC1=NC=CC(=C1)C2=CC=C(C=C2)CC(=O)NC3=CC=C(C=C3)C4=CN=CC=C4 [Wnt-C59] + O=C(CCCCCCC(=O)Nc1ccccc1)NO [Vorinostat] (partner 1 µM)
Outline: as §1

Lapatinib + Decitabine = compound: CS(=O)(=O)CCNCc1ccc(-c2ccc3ncnc(Nc4ccc(OCc5cccc(F)c5)c(Cl)c4)c3c2)o1 [Lapatinib] + Nc1ncn([C@H]2C[C@H](O)[C@@H](CO)O2)c(=O)n1 [Decitabine] (partner 2 µM)
Outline: as §1

Cell Line	relative viability (Wnt-C59 + Trametinib; first compound 0.001 µM)	relative viability (Wnt-C59 + Trametinib; first compound 0.01 µM)	relative viability (Wnt-C59 + Trametinib; first compound 0.03162 µM)	relative viability (Wnt-C59 + Trametinib; first compound 0.1 µM)	relative viability (Wnt-C59 + Navitoclax; first compound 0.001 µM)	relative viability (Wnt-C59 + Navitoclax; first compound 0.01 µM)	relative viability (Wnt-C59 + Navitoclax; first compound 0.03162 µM)	relative viability (Wnt-C59 + Navitoclax; first compound 0.1 µM)	relative viability (Wnt-C59 + Vorinostat; first compound 0.001 µM)	relative viability (Wnt-C59 + Vorinostat; first compound 0.01 µM)	relative viability (Wnt-C59 + Vorinostat; first compound 0.03162 µM)	relative viability (Wnt-C59 + Vorinostat; first compound 0.1 µM)	relative viability (Lapatinib + Decitabine; first compound 0.06325 µM)	relative viability (Lapatinib + Decitabine; first compound 0.2 µM)	relative viability (Lapatinib + Decitabine; first compound 0.6325 µM)	relative viability (Lapatinib + Decitabine; first compound 2 µM)	relative viability (Lapatinib + Decitabine; first compound 0.02 µM)
CAL-12T	0.327	0.378	0.367	0.381	1.35	1.45	1.19	1.1	0.808	0.82	0.975	0.805	–	–	–	–	–
SW 900	0.809	0.745	0.793	0.6	–	–	–	–	0.475	0.343	0.479	0.488	0.392	0.428	0.44	0.425	–
NCI-H2342	0.786	0.757	0.91	0.797	–	–	–	–	0.706	0.747	0.855	0.732	0.694	0.618	0.691	0.638	0.706
NCI-H1299	–	–	–	–	1.03	1.06	1.02	1.02	–	–	–	–	–	–	–	–	–
HARA	0.785	0.691	0.933	0.879	1.18	1.17	1.17	1.13	0.729	0.533	0.511	0.481	0.525	0.522	0.37	0.398	0.575
H3255	0.664	0.495	0.683	0.506	0.573	0.502	0.688	0.558	0.79	0.71	0.95	0.86	0.543	0.584	0.422	0.207	–
NCI-H1792	0.395	0.348	0.526	0.352	0.671	0.669	0.695	0.701	–	–	–	–	–	0.555	0.509	0.388	–
NCI-H2023	0.608	0.579	0.679	0.543	1	0.993	1.03	0.944	0.757	0.499	0.742	0.487	0.229	0.224	0.235	0.223	0.22
HCC-78	0.691	0.746	0.908	0.854	0.781	0.729	0.731	0.452	0.439	0.407	0.476	0.484	0.58	0.744	0.765	0.735	–
HOP-62	0.347	0.366	0.352	0.347	1.05	1.04	0.98	0.903	0.639	0.576	0.508	0.637	0.224	0.21	0.203	0.219	–
NCI-H1755	0.797	0.792	0.759	0.719	0.983	0.977	1.01	1.02	0.721	0.71	0.744	0.752	0.752	0.706	0.735	0.749	0.738
NCI-H1651	0.857	0.875	0.783	0.773	1.07	1.02	1.11	0.955	0.557	0.6	0.597	0.63	0.608	0.605	0.633	0.484	0.466
SK-MES-1	0.61	0.556	0.511	0.518	1.2	1.17	1.3	1.16	1.12	1.11	1.21	1.03	0.364	0.37	0.306	0.311	0.429
NCI-H2085	0.599	0.577	0.58	0.614	1.28	1.15	1.23	1.05	0.758	0.717	0.811	0.756	0.528	0.512	0.521	0.477	0.579
EKVX	0.366	–	0.324	0.319	0.991	0.87	0.896	0.788	0.805	0.585	0.574	0.557	0.326	0.333	0.304	0.138	–
NCI-H1437	0.51	0.562	0.481	0.579	1.16	1.03	1.16	1.09	0.838	0.806	0.829	0.8	0.527	0.56	0.53	0.569	0.603
LCLC-103H	0.716	0.667	0.667	0.713	–	–	–	–	0.887	0.743	0.762	0.806	0.657	0.652	0.775	0.666	0.764
Calu-6	–	–	–	–	0.801	0.97	0.757	0.787	–	–	–	–	–	–	–	–	–
NCI-H661	0.567	0.559	0.593	0.631	–	–	–	–	0.815	0.726	0.854	0.755	0.474	0.489	0.387	0.423	0.48
A549	–	–	–	–	1.23	1.31	1.29	1.12	–	–	–	–	0.224	0.305	0.291	0.133	–
NCI-H1703	–	–	–	–	1.45	1.39	1.08	1.08	–	–	–	–	–	–	–	–	–
NCI-H2228	0.549	0.574	0.477	0.499	0.957	0.87	0.68	1.05	0.654	0.657	0.587	0.838	–	–	–	–	–
IA-LM	–	–	–	–	0.851	0.751	0.718	0.751	0.934	0.906	–	0.939	–	–	–	–	–
EBC-1	–	–	–	–	0.378	0.405	0.431	0.513	–	–	–	–	–	–	–	–	–
NCI-H1648	0.564	0.45	0.63	0.491	–	–	–	–	0.421	0.369	0.655	0.364	0.389	0.495	0.481	0.33	–
